Reference: patent US20250270564A1, “EXTRACELLULAR VESICLE SECRETION BOOSTER FOR BOOSTING EXTRACELLULAR VESICLE SECRETION, AND USE THEREOF” (THEORIA SCIENCE INC., priority 2021, published 2025)

Experiments:
HCT116 = test: Amount of secreted EVs (ExoScreen / NTA method); type: cell-based, human; conditions: inhibitor at 10 nmol/L or 100 nmol/L, FIG. 12
Procedure: For preparation of a secreted EV sample for the ExoScreen method, cells were cultured and supernatant was collected as follows. First, cells were seeded in a 96-well plate using a serum-supplemented medium (the medium according to the type of cells) at 5×10^3 cells/medium 0.1 mL/well (Day 0). After incubation for 24 hours (Day 1), […], and the cells were transfected with the miRNA using a transfection agent (product name Dhermafect1, manufactured by Dhermacon, the same shall apply hereinafter) according to the instructions for use. […]
(§1) For preparation of a secreted EV sample for the NTA method, cells were cultured and supernatant was collected and purified as follows. […] After collecting the supernatant, the number of cells in each well was counted. […]
EV detection was performed using an exosome marker CD9 or C63 according to the ExoScreen method. EV detection was performed using an AlphaLISA reagent (Perkin Elmer) composed of AlphaScreen streptavidin-coated donor beads (6760002), AlphaLISA unconjugated acceptor beads (6062011), and an AlphaLISA universal buffer (AL001F), a 96-well half-area white plate (6005560, Perkin Elmer), and a detection device EnSpire Alpha 2300 Mutilabel plate reader (Perkin Elmer). […] Next, luminescence in the wells of the plate was measured using the detection device with the excitation wavelength set to 680 nm and the emission detection wavelength set to 615 nm. […]

A549 = test: Amount of secreted EVs (ExoScreen / NTA method); type: cell-based, human; conditions: inhibitor at 10 nmol/L or 100 nmol/L, FIG. 11
Procedure: For preparation of a secreted EV sample for the ExoScreen method, cells were cultured and supernatant was collected as follows. First, cells were seeded in a 96-well plate using a serum-supplemented medium (the medium according to the type of cells) at 5×10^3 cells/medium 0.1 mL/well (Day 0). After incubation for 24 hours (Day 1), 10 fmol of the miRNA was added, and the cells were transfected with the miRNA using a transfection agent (product name Dhermafect1, manufactured by Dhermacon, the same shall apply hereinafter) according to the instructions for use. […]
as §1
EV detection was performed using an exosome marker CD9 or C63 according to the ExoScreen method. EV detection was performed using an AlphaLISA reagent (Perkin Elmer) composed of AlphaScreen streptavidin-coated donor beads (6760002), AlphaLISA unconjugated acceptor beads (6062011), and an AlphaLISA universal buffer (AL001F), a 96-well half-area white plate (6005560, Perkin Elmer), and a detection device EnSpire Alpha 2300 Mutilabel plate reader (Perkin Elmer). […]

CC(C)(Sc1cc(C(C)(C)C)c(O)c(C(C)(C)C)c1)Sc1cc(C(C)(C)C)c(O)c(C(C)(C)C)c1 [probucol]
EV secretion compared with NC (HCT116): particularly effectively boosted EV secretion | EV secretion compared with NC (A549): particularly effectively boosted EV secretion
